Tested on: SARS-CoV-2 FSE mutants
Type: cell-based

Compound: CCNCC1CCN(c2c(F)cc3c(=O)c(C(=O)O)cn(CC)c3c2F)C1 (centres unmarked) [merafloxacin, 1-ethyl-7-[3-(ethylaminomethyl)pyrrolidin-1-yl]-6,8-difluoro-4-oxoquinoline-3-carboxylic acid]
- frameshifting inhibition in structure-perturbing FSE mutants: significantly inhibited frameshifting in all variants
- −1 PRF inhibition in naturally occurring FSE variants: inhibited −1 PRF in all variants with similar efficacy
